Data reported in the NIST ThermoML archive (doi:10.1021/acs.jced.9b00442).

Tests used:
[1] = 100 kPa, Liquid; for electrical conductivity: Frequency=0.0006 MHz, Alternating current cell with electrodes; for viscosity: Concentric cylinders viscometry; for mass density: Vibrating tube method
[2] = refractive index (Na D-line) (dimensionless); conditions: 100 kPa, Liquid, Standard Abbe refractometry

CC[N+](C)(C)CCCO.O=S(=O)([N-]S(=O)(=O)C(F)(F)F)C(F)(F)F
Conditions | electrical conductivity [S/m] | mass density [kg/m3] | refractive index | viscosity [mPa·s]
[1], 283.15 K | 0.049 | – | – | –
[1], 288.15 K | 0.069 | 1472.2 | – | 314
[1], 289.15 K | – | 1471.4 | – | –
[1], 290.15 K | – | 1470.5 | – | –
[1], 291.15 K | – | 1469.6 | – | –
[1], 292.15 K | – | 1468.7 | – | –
[1], 293.15 K | 0.095 | 1467.8 | – | 220.1
[1], 294.15 K | – | 1466.9 | – | –
[1], 295.15 K | – | 1466.1 | – | –
[1], 296.15 K | – | 1465.2 | – | –
[1], 297.15 K | – | 1464.3 | – | –
[1], 298.15 K | 0.125 | 1463.4 | – | 166
[1], 299.16 K | – | 1462.5 | – | –
[1], 300.16 K | – | 1461.7 | – | –
[1], 301.15 K | – | 1460.8 | – | –
[1], 302.15 K | – | 1459.9 | – | –
[1], 303.15 K | 0.162 | 1459 | – | 125.4
[1], 304.15 K | – | 1458.2 | – | –
[1], 305.15 K | – | 1457.3 | – | –
[1], 306.15 K | – | 1456.4 | – | –
[1], 307.15 K | – | 1455.5 | – | –
[1], 308.15 K | 0.204 | 1454.7 | – | 96.7
[1], 309.15 K | – | 1453.8 | – | –
[1], 310.15 K | – | 1452.9 | – | –
[1], 311.15 K | – | 1452 | – | –
[1], 312.15 K | – | 1451.2 | – | –
[1], 313.15 K | 0.253 | 1450.3 | – | 76.8
[1], 314.15 K | – | 1449.4 | – | –
[1], 315.15 K | – | 1448.6 | – | –
[1], 316.15 K | – | 1447.7 | – | –
[1], 317.15 K | – | 1446.8 | – | –
[1], 318.15 K | 0.309 | 1446 | – | 60.9
[1], 319.15 K | – | 1445.1 | – | –
[1], 320.15 K | – | 1444.2 | – | –
[1], 321.15 K | – | 1443.4 | – | –
[1], 322.15 K | – | 1442.5 | – | –
[1], 323.15 K | 0.371 | 1441.6 | – | 49.5
[1], 324.15 K | – | 1440.8 | – | –
[1], 325.15 K | – | 1439.9 | – | –
[1], 326.15 K | – | 1439 | – | –
[1], 327.15 K | – | 1438.2 | – | –
[1], 328.15 K | – | 1437.3 | – | 40.8
[1], 329.15 K | – | 1436.4 | – | –
[1], 330.15 K | – | 1435.6 | – | –
[1], 331.15 K | – | 1434.7 | – | –
[1], 332.15 K | – | 1433.9 | – | –
[1], 333.15 K | – | 1433 | – | 34.5
[1], 334.15 K | – | 1432.1 | – | –
[1], 335.16 K | – | 1431.3 | – | –
[1], 336.15 K | – | 1430.4 | – | –
[1], 337.15 K | – | 1429.6 | – | –
[1], 338.15 K | – | 1428.7 | – | 28.8
[1], 339.15 K | – | 1427.8 | – | –
[1], 340.15 K | – | 1427 | – | –
[1], 341.15 K | – | 1426.1 | – | –
[1], 342.15 K | – | 1425.3 | – | –
[1], 343.15 K | – | 1424.4 | – | 24.6
[1], 344.15 K | – | 1423.6 | – | –
[1], 345.15 K | – | 1422.7 | – | –
[1], 346.15 K | – | 1421.9 | – | –
[1], 347.15 K | – | 1421 | – | –
[1], 348.15 K | – | 1420.1 | – | 21.2
[1], 349.15 K | – | 1419.3 | – | –
[1], 350.15 K | – | 1418.4 | – | –
[1], 351.15 K | – | 1417.6 | – | –
[1], 352.15 K | – | 1416.7 | – | –
[1], 353.15 K | – | 1415.9 | – | 18.7
[1], 354.15 K | – | 1415 | – | –
[1], 355.15 K | – | 1414.2 | – | –
[1], 356.15 K | – | 1413.3 | – | –
[1], 357.15 K | – | 1412.5 | – | –
[1], 358.15 K | – | 1411.7 | – | 16.2
[1], 359.15 K | – | 1410.8 | – | –
[1], 360.15 K | – | 1410 | – | –
[1], 361.15 K | – | 1409.1 | – | –
[1], 362.16 K | – | 1408.3 | – | –
[1], 363.15 K | – | 1407.4 | – | 14.3
[2], 283.15 K | – | – | 1.4253 | –
[2], 288.15 K | – | – | 1.4241 | –
[2], 293.15 K | – | – | 1.4228 | –
[2], 298.15 K | – | – | 1.4215 | –
[2], 303.15 K | – | – | 1.4203 | –
[2], 308.15 K | – | – | 1.419 | –
[2], 313.15 K | – | – | 1.4176 | –
[2], 318.15 K | – | – | 1.4164 | –
[2], 323.15 K | – | – | 1.4151 | –
[2], 328.15 K | – | – | 1.4139 | –
[2], 333.15 K | – | – | 1.4126 | –
[2], 338.15 K | – | – | 1.4114 | –
[2], 343.15 K | – | – | 1.4101 | –
[2], 348.15 K | – | – | 1.4089 | –
[2], 353.15 K | – | – | 1.4076 | –
[2], 358.15 K | – | – | 1.4064 | –
